Source: paper doi:10.1101/586255v1 (biorxiv, 2019)
Like-named read-outs stand apart in the source and are kept apart here.

Tests used:
[1] = molecular target: T1, HsSerRS (Homo sapiens, UniProt P49591); assay type: biochemical
[2] = molecular target: T2, EcSerRS (Escherichia coli, UniProt P0A8L1); assay: continuous coupled spectrophotometric assay of adenylate formation; assay type: biochemical
[3] = molecular target: T3, SaSerRS (Staphylococcus aureus, UniProt P95689); assay: as above; assay type: biochemical
[4] = molecular target: T1, HsSerRS; assay: biochemical
[5] = molecular target: T3, SaSerRS; assay: biochemical
[6] = molecular target: T2, EcSerRS; assay: biochemical
[7] = pH 7.6, 37 °C, 10 mM MgCl2, 10% DMSO

T3 sequence (P95689 whole entry): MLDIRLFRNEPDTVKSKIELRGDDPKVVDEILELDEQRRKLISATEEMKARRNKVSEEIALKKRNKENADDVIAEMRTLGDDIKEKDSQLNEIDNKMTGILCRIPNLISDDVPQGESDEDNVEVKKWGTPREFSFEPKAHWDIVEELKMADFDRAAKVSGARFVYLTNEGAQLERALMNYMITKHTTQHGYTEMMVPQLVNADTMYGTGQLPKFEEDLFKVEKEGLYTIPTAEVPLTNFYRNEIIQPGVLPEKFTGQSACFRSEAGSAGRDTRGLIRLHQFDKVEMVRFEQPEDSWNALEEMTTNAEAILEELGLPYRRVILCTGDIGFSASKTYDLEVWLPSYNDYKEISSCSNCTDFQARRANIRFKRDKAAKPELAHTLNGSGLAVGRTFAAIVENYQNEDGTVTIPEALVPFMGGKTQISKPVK
T1 sequence (P49591 whole entry, looked up): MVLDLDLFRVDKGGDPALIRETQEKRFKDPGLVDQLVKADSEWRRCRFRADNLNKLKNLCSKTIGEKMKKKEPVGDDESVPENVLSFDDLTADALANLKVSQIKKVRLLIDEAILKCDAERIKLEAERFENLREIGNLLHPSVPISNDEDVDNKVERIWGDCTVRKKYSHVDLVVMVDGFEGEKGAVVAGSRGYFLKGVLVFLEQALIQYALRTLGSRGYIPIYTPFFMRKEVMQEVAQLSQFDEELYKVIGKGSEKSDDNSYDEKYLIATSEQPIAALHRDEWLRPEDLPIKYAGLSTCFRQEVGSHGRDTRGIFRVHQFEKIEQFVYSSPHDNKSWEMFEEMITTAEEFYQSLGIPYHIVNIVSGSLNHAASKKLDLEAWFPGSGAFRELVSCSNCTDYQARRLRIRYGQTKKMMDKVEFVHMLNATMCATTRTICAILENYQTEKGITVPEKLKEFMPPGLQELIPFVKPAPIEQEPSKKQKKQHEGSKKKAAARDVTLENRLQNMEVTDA
T2 sequence (P0A8L1 whole entry): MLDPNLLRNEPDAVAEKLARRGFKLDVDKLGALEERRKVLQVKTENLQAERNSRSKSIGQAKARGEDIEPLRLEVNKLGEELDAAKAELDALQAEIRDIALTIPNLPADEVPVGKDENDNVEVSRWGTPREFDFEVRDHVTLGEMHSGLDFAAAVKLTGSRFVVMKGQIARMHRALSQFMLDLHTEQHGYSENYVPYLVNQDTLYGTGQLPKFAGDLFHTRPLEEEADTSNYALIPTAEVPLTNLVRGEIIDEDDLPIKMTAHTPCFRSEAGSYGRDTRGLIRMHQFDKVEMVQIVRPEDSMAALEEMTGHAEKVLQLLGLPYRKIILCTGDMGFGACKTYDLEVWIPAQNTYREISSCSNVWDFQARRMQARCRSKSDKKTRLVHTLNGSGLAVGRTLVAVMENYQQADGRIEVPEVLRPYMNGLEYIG

Compound	IC50 [2, 7]	IC50 [3, 7]	other results
Nc1ncnc2c1ncn2[C@@H]1O[C@H](COS(=O)(=O)NC(=O)[C@@H](N)CO)[C@@H](O)[C@H]1O [compound 1, SerSA]	0.21 ± 0.03 µM	–	IC50 [1]: 2.17 ± 0.21 µM; IC50 ([3]; pH 7.6, 37 °C, 10 mM MgCl2, 10% DMSO, error as printed is larger than the value): 0.23 ± 0.49 µM
Nc1nc(Cl)nc2c1ncn2[C@@H]1O[C@H](COS(=O)(=O)NC(=O)[C@@H](N)CO)[C@@H](O)[C@H]1O [compound 2]	0.45 ± 0.05 µM	0.26 ± 0.03 µM	–
Nc1nc(I)nc2c1ncn2[C@@H]1O[C@H](COS(=O)(=O)NC(=O)[C@@H](N)CO)[C@@H](O)[C@H]1O [compound 3]	1.36 ± 0.12 µM	0.38 ± 0.04 µM	–
Nc1nc(-c2ccccc2)nc2c1ncn2[C@@H]1O[C@H](COS(=O)(=O)NC(=O)[C@@H](N)CO)[C@@H](O)[C@H]1O [compound 4]	17.7 ± 1.42 µM	52.7 ± 4.81 µM	–
C/C=C/c1nc(N)c2ncn([C@@H]3O[C@H](COS(=O)(=O)NC(=O)[C@@H](N)CO)[C@@H](O)[C@H]3O)c2n1 [compound 5]	9.38 ± 0.7 µM	3.46 ± 0.47 µM	–
Nc1nc(-c2ccco2)nc2c1ncn2[C@@H]1O[C@H](COS(=O)(=O)NC(=O)[C@@H](N)CO)[C@@H](O)[C@H]1O [compound 6]	36.2 ± 2.41 µM	32.4 ± 3.56 µM	–
Nc1nc(-c2ccsc2)nc2c1ncn2[C@@H]1O[C@H](COS(=O)(=O)NC(=O)[C@@H](N)CO)[C@@H](O)[C@H]1O [compound 7]	1.44 ± 0.09 µM	1.24 ± 0.12 µM	–
Nc1nc(-c2cccnc2)nc2c1ncn2[C@@H]1O[C@H](COS(=O)(=O)NC(=O)[C@@H](N)CO)[C@@H](O)[C@H]1O [compound 8]	6.65 ± 0.64 µM	6.34 ± 0.71 µM	–
C[C@H](N)C(=O)NS(=O)(=O)OC[C@H]1O[C@@H](n2cnc3c(N)ncnc32)[C@H](O)[C@@H]1O [compound 9, AlaSA]	–	–	IC50 [4]: > 1000 µM; IC50 [5]: > 1000 µM; IC50 [6]: > 1000 µM
C[C@@H](O)[C@H](N)C(=O)NS(=O)(=O)OC[C@H]1O[C@@H](n2cnc3c(N)ncnc32)[C@H](O)[C@@H]1O [compound 10, ThrSA]	–	–	IC50 [2]: 285 µM; IC50 [4]: > 1000 µM; IC50 [3]: 231 µM
